In one test the target is T1, K-Ras G12V (Homo sapiens, UniProt P01116, G12V).
T1 construct: made in house; host or cells: E. coli BL21 (DE3)
Description: HTRF resonance energy transfer assay, K-Ras G12V / SOS1 interaction. Type of test: biochemical. Conditions: HTRF assay of Example 5; read-out: IC50 against K-Ras G12V. Summed up: (§1)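 Buffer about 5 mM HEPES pH 7.4 with ~150 mM NaCl, ~1 mM DTT, 0.05% BSA, 0.0025% (v/v) Igepal. Protein constructs used at molarity matching the IC50 range studied (e.g. ~500 nM). FRET between tagged K-Ras and hSOS1 measured after short incubation.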

The next test has as its target T2, K-Ras G12D (Homo sapiens, UniProt P01116, G12D).
T2 construct: made in house; host or cells: E. coli BL21 (DE3)
The experiment in a line: HTRF resonance energy transfer assay, K-Ras G12D / SOS1 interaction. Type of test: biochemical. Conditions: HTRF assay of Example 5; read-out: IC50 against K-Ras G12D. The essentials: as §1
A general note: TR-FRET usually uses a lanthanide donor and a delayed reading to cut background.

A further test relates to GP2D cells. The experiment in a line: Ras cellular assay, growth of cells with K-Ras G12D mutation (CellTiter-Glo). Conditions: cell growth, Example 9, G12D mutation, read-out: IC50 against GP2D cells. Type of test: cell-based.
Another test concerns the target T3, K-Ras WT (Homo sapiens, UniProt P01116).
T3 construct: made in house; host or cells: E. coli BL21 (DE3)
The experiment in a line: HTRF resonance energy transfer assay, K-Ras WT / SOS1 interaction. The test is classed as biochemical. Conditions: HTRF assay of Example 5; read-out: IC50 against K-Ras WT. Summed up: as §1

For another test, the target named is T4, K-Ras G12S (Homo sapiens, UniProt P01116, G12S).
T4 construct: made in house; host or cells: E. coli BL21 (DE3)
The experiment in a line: HTRF resonance energy transfer assay, K-Ras G12S / SOS1 interaction. The test is classed as biochemical. Conditions: HTRF assay of Example 5; read-out: IC50 against K-Ras G12S. The essentials:
as §1

A further test concerns SW620 cells. Description: Ras cellular assay, growth of cells with K-Ras G12V mutation (CellTiter-Glo). Conditions: Homo sapiens, SW-620; cell growth, Example 9, G12V mutation; read-out: IC50 against SW620 cells. The test is classed as cell-based. The essentials: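 IC50 values came from a four-parameter fit of CellTiter-Glo viability, read roughly 6 days after dosing with e.g. a 10-point threefold dilution series. G12V-mutant SW620 cells (e.g. 800 per well) had been plated the previous day in RPMI-1640/10% heat-inactivated FBS, on tissue culture-treated or ultra-low attachment plates.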

The values below come from US12209102B2, “Heterocyclic compounds and uses thereof” (Kumquat Biosciences Inc., priority 2022, dated 2025).

Each structure is given as a SMILES string.

T3 sequence (P01116 1-188 isoform P01116-2): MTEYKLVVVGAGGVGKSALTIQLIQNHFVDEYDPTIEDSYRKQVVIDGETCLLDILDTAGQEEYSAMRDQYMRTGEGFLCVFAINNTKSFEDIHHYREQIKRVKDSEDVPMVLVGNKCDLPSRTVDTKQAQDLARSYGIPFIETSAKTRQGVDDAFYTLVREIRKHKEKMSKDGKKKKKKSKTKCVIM
T2 sequence (P01116 1-188 isoform P01116-2 G12D): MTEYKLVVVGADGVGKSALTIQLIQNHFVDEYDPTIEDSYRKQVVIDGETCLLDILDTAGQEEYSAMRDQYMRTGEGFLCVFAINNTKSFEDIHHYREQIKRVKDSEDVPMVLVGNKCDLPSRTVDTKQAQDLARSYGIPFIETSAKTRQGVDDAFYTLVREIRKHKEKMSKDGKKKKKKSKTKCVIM
T1 sequence (P01116 1-188 isoform P01116-2 G12V): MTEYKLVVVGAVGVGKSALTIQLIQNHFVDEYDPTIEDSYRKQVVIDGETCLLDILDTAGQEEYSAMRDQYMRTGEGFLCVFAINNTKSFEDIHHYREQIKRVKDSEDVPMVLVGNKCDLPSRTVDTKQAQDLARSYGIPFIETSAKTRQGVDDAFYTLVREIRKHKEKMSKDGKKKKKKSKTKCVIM
T4 sequence (P01116 1-188 isoform P01116-2 G12S): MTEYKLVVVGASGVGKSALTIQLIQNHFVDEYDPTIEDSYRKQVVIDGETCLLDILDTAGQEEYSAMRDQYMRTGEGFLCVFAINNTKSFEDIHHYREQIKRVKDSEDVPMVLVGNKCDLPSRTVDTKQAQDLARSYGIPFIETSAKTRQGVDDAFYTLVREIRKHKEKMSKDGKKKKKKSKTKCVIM

Usually IC50 stands for the midpoint of a concentration-inhibition curve. As for `CN(C)CCCN1c2nc(OC[C@@]34CCCN3C[C@H](F)C4)nc3c(F)c(-c4ccc(F)c5sc(N)c(C#N)c45)c(Cl)c(c23)OCC1CC#N` (stereo partly drawn) [Compound 896, 2-amino-4-(8-chloro-5-(cyanomethyl)-4-(3-(dimethylamino)propyl)-10-fluoro-2-(((2R,7aS)-2-fluorotetrahydro-1H-pyrrolizin-7a(5H)-yl)methoxy)-5,6-dihydro-4H-[1,4]oxazepino[5,6,7-de]quinazolin-9-yl)-7-fluorobenzo[b]thiophene-3-carbonitrile], the IC50 on K-Ras G12V is under 100 nM; on K-Ras G12D, under 100 nM; with GP2D cells, under 500 nM; on K-Ras WT, under 100 nM; on K-Ras G12S, under 100 nM; in the test on SW620 cells, under 5000 nM.

On to `C[C@H](O)[C@H]1[C@@H](C)Oc2c(Cl)c(-c3ccc(F)c4sc(N)c(C#N)c34)c(F)c3nc(OC[C@@]45CCCN4C[C@H](F)C5)nc(c23)N1CC(F)F` [Compound 911, 2-amino-4-((5S,6R)-8-chloro-4-(2,2-difluoroethyl)-10-fluoro-2-(((2R,7aS)-2-fluorotetrahydro-1H-pyrrolizin-7a(5H)-yl)methoxy)-5-((S)-1-hydroxyethyl)-6-methyl-5,6-dihydro-4H-[1,4]oxazepino[5,6,7-de]quinazolin-9-yl)-7-fluorobenzo[b]thiophene-3-carbonitrile], for which the IC50 was under 100 nM on K-Ras G12V; under 100 nM on K-Ras G12D; under 500 nM with GP2D cells; under 100 nM on K-Ras WT; under 100 nM at K-Ras G12S; under 5000 nM with SW620 cells.

For the molecule `N#Cc1c(N)sc2c(F)ccc(-c3c(Cl)c4c5c(nc(OC[C@@]67CCCN6C[C@H](F)C7)nc5c3F)N(CC(F)F)[C@@H](C(O)C(F)(F)F)CO4)c12` (stereo partly drawn) [Compound 919, 2-amino-4-((5R)-8-chloro-4-(2,2-difluoroethyl)-10-fluoro-2-(((2R,7aS)-2-fluorotetrahydro-1H-pyrrolizin-7a(5H)-yl)methoxy)-5-(2,2,2-trifluoro-1-hydroxyethyl)-5,6-dihydro-4H-[1,4]oxazepino[5,6,7-de]quinazolin-9-yl)-7-fluorobenzo[b]thiophene-3-carbonitrile], the IC50 at K-Ras G12V is under 100 nM; at K-Ras G12D, under 100 nM; in the test on GP2D cells, under 500 nM; at K-Ras WT, under 100 nM; on K-Ras G12S, under 100 nM; in the test on SW620 cells, under 5000 nM.

On to `N#Cc1c(N)sc2c(F)ccc(-c3c(Cl)c4c5c(nc(OC[C@@]67CCCN6C[C@H](F)C7)nc5c3F)N(CC(F)F)C(C3(F)CC3)CO4)c12` (stereo partly drawn) [Compound 943, 2-amino-4-(8-chloro-4-(2,2-difluoroethyl)-10-fluoro-5-(1-fluorocyclopropyl)-2-(((2R,7aS)-2-fluorotetrahydro-1H-pyrrolizin-7a(5H)-yl)methoxy)-5,6-dihydro-4H-[1,4]oxazepino[5,6,7-de]quinazolin-9-yl)-7-fluorobenzo[b]thiophene-3-carbonitrile], for which the IC50 was under 100 nM on K-Ras G12V; under 100 nM on K-Ras G12D; under 500 nM with GP2D cells; under 100 nM at K-Ras WT; under 100 nM on K-Ras G12S; under 5000 nM in the test on SW620 cells.

`N#Cc1c(N)sc2c(F)ccc(-c3c(Cl)c4c5c(nc(OC[C@@]67CCCN6C[C@H](F)C7)nc5c3F)N(CCC(F)F)[C@@H](C3(O)CC3)CO4)c12` [Compound 986, 2-amino-4-((R)-8-chloro-4-(3,3-difluoropropyl)-10-fluoro-2-(((2R,7aS)-2-fluorotetrahydro-1H-pyrrolizin-7a(5H)-yl)methoxy)-5-(1-hydroxycyclopropyl)-5,6-dihydro-4H-[1,4]oxazepino[5,6,7-de]quinazolin-9-yl)-7-fluorobenzo[b]thiophene-3-carbonitrile]: the half-maximal inhibitory concentration (IC50) on K-Ras G12V is under 100 nM; on K-Ras G12D it was under 100 nM; in the test with GP2D cells, under 500 nM; on K-Ras WT, under 100 nM; on K-Ras G12S, under 100 nM; in the test with SW620 cells, under 5000 nM.

On to `C[C@@H]1C[C@@H](N2CCOc3c(Cl)c(-c4ccc(F)c5sc(N)c(C#N)c45)c(F)c4nc(OC[C@@]56CCCN5C[C@H](F)C6)nc2c34)CN1` [Compound 1016, 2-amino-4-(8-chloro-10-fluoro-2-(((2R,7aS)-2-fluorotetrahydro-1H-pyrrolizin-7a(5H)-yl)methoxy)-4-((3R,5R)-5-methylpyrrolidin-3-yl)-5,6-dihydro-4H-[1,4]oxazepino[5,6,7-de]quinazolin-9-yl)-7-fluorobenzo[b]thiophene-3-carbonitrile], for which the IC50 on K-Ras G12V was under 100 nM; at K-Ras G12D it was under 100 nM; with GP2D cells, under 500 nM; on K-Ras WT it was under 100 nM; on K-Ras G12S, under 100 nM; in the test on SW620 cells it was under 5000 nM.

As for `N#Cc1c(N)sc2c(F)ccc(-c3c(Cl)c4c5c(nc(OC[C@@]67CCCN6C[C@H](F)C7)nc5c3F)N(CC(F)F)[C@@H](C3CC3)CO4)c12` [Compound 1022, 2-amino-4-((S)-8-chloro-5-cyclopropyl-4-(2,2-difluoroethyl)-10-fluoro-2-(((2R,7aS)-2-fluorotetrahydro-1H-pyrrolizin-7a(5H)-yl)methoxy)-5,6-dihydro-4H-[1,4]oxazepino[5,6,7-de]quinazolin-9-yl)-7-fluorobenzo[b]thiophene-3-carbonitrile], the IC50 is under 100 nM at K-Ras G12V; under 100 nM on K-Ras G12D; under 500 nM in the test on GP2D cells; under 100 nM on K-Ras WT; under 100 nM on K-Ras G12S; under 5000 nM with SW620 cells.

As to `N#Cc1c(N)sc2c(F)ccc(-c3c(Cl)c4c5c(nc(OC[C@@]67CCCN6C[C@H](F)C7)nc5c3F)N(C3CCOC3)[C@@H](C3(O)CC3)CO4)c12` (stereo partly drawn) [Compound 1031, 2-amino-4-((5R)-8-chloro-10-fluoro-2-(((2R,7aS)-2-fluorotetrahydro-1H-pyrrolizin-7a(5H)-yl)methoxy)-5-(1-hydroxycyclopropyl)-4-(tetrahydrofuran-3-yl)-5,6-dihydro-4H-[1,4]oxazepino[5,6,7-de]quinazolin-9-yl)-7-fluorobenzo[b]thiophene-3-carbonitrile], the IC50 was under 100 nM on K-Ras G12V; under 100 nM at K-Ras G12D; under 500 nM in the test on GP2D cells; under 100 nM at K-Ras WT; under 100 nM on K-Ras G12S; under 5000 nM with SW620 cells.

In the case of `N#Cc1c(N)sc2c(F)ccc(-c3c(Cl)c4c5c(nc(OC[C@@]67CCCN6C[C@H](F)C7)nc5c3F)N(CCC(F)F)[C@@H](C(F)F)CO4)c12` [Compound 1035, 2-amino-4-((R)-8-chloro-5-(difluoromethyl)-4-(3,3-difluoropropyl)-10-fluoro-2-(((2R,7aS)-2-fluorotetrahydro-1H-pyrrolizin-7a(5H)-yl)methoxy)-5,6-dihydro-4H-[1,4]oxazepino[5,6,7-de]quinazolin-9-yl)-7-fluorobenzo[b]thiophene-3-carbonitrile], the IC50 at K-Ras G12V is under 100 nM; at K-Ras G12D, under 100 nM; with GP2D cells, under 500 nM; at K-Ras WT, under 100 nM; at K-Ras G12S, under 100 nM; in the test on SW620 cells it was under 5000 nM.

As to `CC(C)(O)[C@H]1COc2c(Cl)c(-c3ccc(F)c4sc(N)c(C#N)c34)c(F)c3nc(OC[C@@]45CCCN4C[C@H](F)C5)nc(c23)N1C1CCOC1` (stereo partly drawn) [Compound 1041, 2-amino-4-((5R)-8-chloro-10-fluoro-2-(((2R,7aS)-2-fluorotetrahydro-1H-pyrrolizin-7a(5H)-yl)methoxy)-5-(2-hydroxypropan-2-yl)-4-(tetrahydrofuran-3-yl)-5,6-dihydro-4H-[1,4]oxazepino[5,6,7-de]quinazolin-9-yl)-7-fluorobenzo[b]thiophene-3-carbonitrile], the IC50 is under 100 nM on K-Ras G12V; under 100 nM on K-Ras G12D; under 500 nM with GP2D cells; under 100 nM at K-Ras WT; under 100 nM on K-Ras G12S; under 5000 nM with SW620 cells.

For `C[C@H](O)[C@H]1[C@H](C)Oc2c(Cl)c(-c3ccc(F)c4sc(N)c(C#N)c34)c(F)c3nc(OC[C@@]45CCCN4C[C@H](F)C5)nc(c23)N1CC(F)F` [Compound 1042, 2-amino-4-((5S,6S)-8-chloro-4-(2,2-difluoroethyl)-10-fluoro-2-(((2R,7aS)-2-fluorotetrahydro-1H-pyrrolizin-7a(5H)-yl)methoxy)-5-((S)-1-hydroxyethyl)-6-methyl-5,6-dihydro-4H-[1,4]oxazepino[5,6,7-de]quinazolin-9-yl)-7-fluorobenzo[b]thiophene-3-carbonitrile], the half-inhibitory concentration (IC50) is under 100 nM on K-Ras G12V; under 100 nM at K-Ras G12D; under 500 nM in the test with GP2D cells; under 100 nM on K-Ras WT; under 100 nM at K-Ras G12S; under 5000 nM in the test with SW620 cells.
